# Measured values: patent US9243225B2, “Methods of obtaining cell populations enriched with desired cells” (HADASIT MEDICAL RESEARCH SERVICES & DEVELOPMENT LIMITED, priority 2010, dated 2016)
# Tests used:
# [1] = tested on: tumor-forming cells in transplanted hESC-derived cell preparations; test: Transplantation of paclitaxel-treated differentiated hESC into 6-OH dopamine-lesioned (Parkinsonian) rats; type: in vivo, rat
# Description: 6-Hydroxydopamine (8 μg/rat) was stereotaxically injected (in a 4 μL solution) into the right substantia nigra of male Sprague-Dawley rats weighing 250-280 g; coordinates of injection: P=4.8, L=1.7, H=−8.6 from bregma. Fourteen days after 6-hydroxydopamine injection, rats were selected for transplantation if they had >350 rotations per hour after s.c. injection of apomorphine ([…]) (apomorphine being injected after 14 days) and, if 2 days later (after apomorphine injection) they also had >360 (mean 520±38) rotations per hour after i.p. injection of D-amphetamine (4 mg/kg).
# Two to five days later (after the D-amphetamine injection), differentiated hESC that were induced according to the above specified protocols, either paclitaxel-treated or control-treated (DMSO), were detached with collagenase and were transplanted, 400,000 cells in 12 μL/animal along two tracts per striatum (coordinates: antero-medial tract, A=1, L=2, H=−7.5 to −4; posterio-lateral tract, A−P=0, L=3.5, H=−7.5 to −4.5). All rats received daily i.p. injections of 10 mg cyclosporine A per kg (Sandimmune; Novartis, Basel, Switzerland).
# Rats were euthanized by overdose of pentobarbital and perfused with 4% paraformaldehyde saline. Serial 8 μm coronal frozen sections were prepared. […]
# [2] = tested on: hES1-derived mixed culture of neurons, neural precursors/progenitors (NPs) and undifferentiated cells; test: Paclitaxel treatment of hESC-derived differentiating neural cultures (morphology, immunostaining); type: cell-based, human
# Description: hES1 colonies grown on HFF feeders in DMEM supplemented with knockout (KO) serum replacement, PenStrep, non-essential amino-acids and glutamine (Invitrogen, USA), were enzymatically detached by collagenase. Intact colonies were transferred to non-adhesive culture plates to form neurospheres in NSC medium (DMEM-F12 medium, N2, B27, PenStrep and Glutamine) supplemented with noggin (Peprotech Asia, Rehovot, Israel) and 20 ng/ml bFGF. Spheres were grown for 3-5 weeks in suspension, collected, triturated and plated on 10 μg laminin/poly-D-lysine-coated coverslips in NSC medium supplemented with FGF8 and SHH for 6-8-days. At this stage, cells were treated with the appropriate concentrations of paclitaxel for 18-24 hours. Paclitaxel was then removed and cells were allowed to recuperate and continue with the differentiation process for additional 6-8 days in NSC medium with BDNF, GDNF, TGFβ3, NT4, cAMP, ascorbic acid.
# Alternatively, cells at the end of the differentiation process—the cells are grown as spheres in suspension for 3-5 weeks and 2 more weeks as adherent culture: 1 week FGF8/SHH+1 week factors) are subjected to paclitaxel treatment.
# Paclitaxel was added to cells at 2 ranges of concentrations of 0.2-20 nM and 100-500 nM. Cells are incubated at 37° C., in 5% CO2, 5% O2. Incubation times vary between 2 hours and 48 hours.
structure (smiles),measurement,setting,value
CC(=O)O[C@H]1C(=O)[C@@]2(C)[C@H]([C@H](OC(=O)c3ccccc3)[C@]3(O)C[C@H](OC(=O)[C@H](O)[C@@H](NC(=O)c4ccccc4)c4ccccc4)C(C)=C1C3(C)C)[C@]1(OC(C)=O)CO[C@@H]1C[C@@H]2O [paclitaxel],tumor development after transplantation of treated cells,"[1]; cell preparations treated with 20-50 nM paclitaxel, 9 animals, 5-8 weeks post transplantation, all 6 controls with untreated cells developed large tumors",none developed tumors
same,tyrosine hydroxylase (dopaminergic marker) expression of grafted paclitaxel-treated cells,"[1]; grafted cells marked by human nuclear antigen in rat striatum, FIGS. 4A-4C",express tyrosine hydroxylase
same,effect on mature cells with typical neuronal morphology,"[2]; after treatment with paclitaxel, FIG. 1C",unaffected by the treatment
same,effect on undifferentiated cells and early neural progenitors that form rosette structures,"[2]; after treatment with paclitaxel, FIGS. 1A-1C",undergo apoptosis
same,β-III tubulin expressing cells (neuronal marker) in culture,"[2]; mixed culture of neurons and NPs after paclitaxel treatment, FIG. 2C",enriched for β-III tubulin expressing cells
same,nestin-positive cells (NP marker) in culture,"[2]; mixed culture of neurons and NPs after paclitaxel treatment, FIG. 2D",reduced number of nestin-positive cells
